Measurements as given in patent US10947260B2, “Phosphinolactone derivatives and pharmaceutical uses thereof” (INSTITUT NATIONAL DE LA SANTE ET DE LA RECHERCHE MEDICALE …, priority 2016, dated 2021).

Key:
APPSwe mice = assay: Biochemical analyses in hippocampus of APPSwe mice; format: in vivo; conditions: 1 mg/kg/j IP
Procedure: FIG. 12: Biochemical analyses of the effect of treatments with compound 3b (a) or 3c (b) in the hippocampus of APPSwe mice. Oxidative stress was measured via the level of peroxidation of membrane lipids at (a), or DCF fluorescence at (b). The expression levels of synaptophysin, Bax, IL1β and TNFα were measured using commercial Elisa kits. The values are given as % of the control group WT/V. N=6-8 per group. *p<0.05, **p<0.01 compared with group WT/V; #p<0.05, ##p<0.01 compared with group APPSwe/V; Student t-test.
After sacrifice, the hippocampus and brain cortex of the mice were dissected and frozen to −80° C. until use. The accumulation of reactive oxygen species was measured by fluorescence of 2′,7′-dichlorofluorescein (DCF) in the hippocampus of the mice ex vivo. DCF diacetate (0.5 μM) (Sigma-Aldrich) was added to SDS-soluble fractions of hippocampus extract. After 30 min at 37° C., DCF fluorescence was quantified (excitation at 485 nm, emission at 530 nm) in a Fluoroskan Ascent spectrofluorometer (Thermo Scientific, Waltham, USA), and normalized with the protein concentrations of the extracts.
Peroxidation of membrane lipids was measured using the cumene/xylenol method. The hippocampi were homogenized in methanol (1:10), centrifuged at 1 000 g for 5 min and the supernatant collected. Aliquots were added to a solution containing 1 mM FeSO4, 0.25 m H2SO4, 1 mM xylenol orange and incubated for 30 min at ambient temperature. Absorbance was measured at 580 nm (A5801), then 10 μl of 1 mM cumene hydroperoxide (CHP) was added and the sample incubated 30 min at ambient temperature. Absorbance was measured at 580 nm (A5802). Lipid peroxidation level was determined as CHP equivalents: CHP eq.=A5801/A5802×[CHP (nmol)]×dilution, and calculated in CHP eq. per tissue weight expressed as % of the control group.
Various biochemical parameters were analysed in the hippocampus of APPSwe mice after treatments with 3b, 2 mg/kg/j IP, or 3c, 1 mg/kg/j IP (FIG. 12).

[1] = tested on: mice treated with Aβ25-35; assay: Passive avoidance test, Aβ25-35 model; format: in vivo; conditions: 0.1 and 0.3 mg/kg IP; Days 8 and 9
Procedure: The amyloid-β[25-35] peptide (Aβ25-35) and control peptide (Sc.Aβ) were obtained from Genepep (Saint-Jean-de-Vedas, France). They were solubilized in injectable distilled water at a concentration of 3 mg/ml and stored at −20° C. Before injection, the peptides were incubated at 37° C. for 4 days, which enabled the Aβ25-35 peptide but not the Sc.Aβ, to form oligomers. They were administered via intracerebroventricular route (ICV). The animals were anesthetized by inhaling 2.5% isoflurane (TEM) and were given 3 μl of peptide solution via direct ICV route (Haley and McCormick's method). For injection a 10 μl Hamilton micro-syringe was used at a flow rate of 1 μl/min.
The apparatus contained two compartments (15×20×15 cm in height) with one light part having walls in white PVC and the other dark with walls in black PVC and a grid floor. A vertical sliding door separated each compartment. A 60 W lamp was positioned 40 cm above the white compartment during the experiment. Electrical shocks (0.3 mA for 3 s) were delivered to the grid floor by means of a scrambled shock generator (Lafayette Instruments, Lafayette, United States). The vertical sliding door was first closed during the training session. […] Step-through latency (STL) i.e. the time taken to enter the dark compartment and the number of cries, were recorded. […] Step-through latency was recorded up to 300 s. […]

[2] = tested on: mice treated with Aβ25-35
Procedure: The hippocampi were homogenized in 50 mM Tris-150 mM NaCl solution, pH 7.5, and sonicated for 20 s. After centrifugation at 16 100 g for 15 min at 4° C., the supernatants were used for ELISA assays in accordance with the manufacturer's instructions (ThermoScientific, Courtaboeuf, France; USCN, Wuhan, China). For each assay, absorbance was read at 450 nm and the concentration of each sample calculated in comparison with a standard curve. The results are expressed in ng or pg per mg of tissue and expressed as % of the control group.
On Day 9, the animals were sacrificed, the brains removed, the hippocampi and cortex dissected and frozen.

mice = assay: Forced swim test; format: in vivo; conditions: 5 mg/kg
Procedure: FIG. 13: Assays of compound 3b as positive modulator of the sigma-1 protein. […] Male Swiss mice aged 7 weeks (n=10-12 per group) were forced to swim for 15 min on Day 1 and 6 min on Day 2. They were given NE-100 (10 mg/kg ip), 10 min before compound 3b (10 mg/kg ip) and 20 min before the session of Day 2. Immobility was measured over the last 5 minutes of the session. The vehicle solution was distilled water. F(3.42)=4.45, p<0.01; **p<0.01 vs. group V/V, ##p<0.01 vs. group V/3b, Dunnet test. […] Wild-type mice (Wt, n=14-15) and S1R KO mice (n=9-10) were forced to swim 15 min on Day 1 and 6 min on Day 2. They were given compound 3b (10 mg/kg ip) 20 min before the session on Day 2. Immobility was measured during the last 5 minutes of the session. The vehicle solution was distilled water. F(3.49)=6.64, p<0.001; **p<0.01 vs. group Wt/V, Dunnett test. […] Male Swiss mice aged 7 weeks (n=8-23 per group) were forced to swim for 15 min on Day 1 and 6 min on Day 2. They were given igmesine (10, 30 mg/kg ip) and/or compound 3b (10 mg/kg ip) 20 min before the session on Day 2. NE-100 (10 mg/kg ip) was injected 10 min before igmesine and compound 3b. Immobility was measured during the last 5 minutes of the session. The vehicle solution was distilled water. F(6.90)=5.59, p<0.0001; ***p<0.001 vs. group V, ##p<0.01 vs. group V/Igmesine (10)+3B (5), Dunnett test.

[3] = 1.5 mg/kg IP, control ScAβ animals

Row | Compound | IL1β level, hippocampus (APPSwe mice) | expression of Bax, hippocampus (APPSwe mice) | oxidative stress (DCF fluorescence), hippocampus (APPSwe mice) | synaptophysin level, hippocampus (APPSwe mice) | long-term memory response (passive avoidance step-through latency) [1] | Bax in control animals ScAβ [2, 3] | Bax/Bcl2 ratio in control animals ScAβ [2, 3] | Bcl2 levels ([2]; 0.3-1.5 mg/kg IP) | activity in forced swim test (mice)
1 | CC1(C)COP(=O)(c2ccc(Cl)cc2)C(C)(C)N1 (racemic) [Compound 3c, (±)-2-(4-Chlorophenyl)-2-oxo-3,3,5,5-tetramethyl-[1,4,2]-oxazaphosphinane] | not | caused a decrease | not | not | appeared effective | – | – | – | –
2 | CC1(C)COP(=O)(c2cccc(Cl)c2)C(C)(C)N1 (racemic) [Compound 3b, (±)-2-(3-Chlorophenyl)-2-oxo-3,3,5,5-tetramethyl-[1,4,2]-oxazaphosphinane] | – | – | – | – | – | tends to increase Bax | tends to increase | no effect | not active
